Experimental data published in the NIST ThermoML archive (doi:10.1021/je301371p).

Experiment: xn = mol fraction of the nth substance listed
Conditions: 101 kPa, Liquid; for viscosity: Oscillating disk viscometry; for mass density: Vibrating tube method

CCN(CC)CCO [(diethylamino)ethanol] + O
Conditions | mass density, 298.15 K [kg/m3] | mass density, 313.15 K [kg/m3] | mass density, 333.15 K [kg/m3] | viscosity, 298.15 K [mPa·s] | viscosity, 303.15 K [mPa·s] | viscosity, 313.15 K [mPa·s] | viscosity, 323.15 K [mPa·s] | viscosity, 333.15 K [mPa·s]
x1 = 0.02012 | 993.744 | 987.552 | 976.86 | 2.16 | 1.4 | 1.12 | 0.94 | 0.75
x1 = 0.04547 | 990.151 | 981.577 | 968.366 | 3.62 | 2.34 | 1.66 | 1.32 | 1.03
x1 = 0.07875 | 983.322 | 972.648 | 957.191 | – | 3.61 | 2.42 | 1.72 | 1.24
x1 = 0.1252 | 971.858 | 959.656 | 942.334 | 8 | 5.75 | 3.76 | 2.6 | 1.87
x1 = 0.1933 | 961.569 | 948.632 | 930.379 | 11.61 | 8.05 | 5.27 | 3.69 | 2.53

O [water] + NCCCCN
x2 = 0
Conditions | mass density [kg/m3] | viscosity [mPa·s]
298.15 K | – | 0.89
303.15 K | – | 0.8
313.15 K | – | 0.65
323.15 K | – | 0.55
333.15 K | 983.2 | 0.48

O [water] + CCN(CC)CCO
x2 = 0
Conditions | mass density [kg/m3] | viscosity [mPa·s]
298.15 K | – | 0.89
303.15 K | – | 0.8
313.15 K | – | 0.65
323.15 K | – | 0.55
333.15 K | 983.2 | 0.48

NCCCCN [1,4-butanediamine] + O
Conditions | mass density, 298.15 K [kg/m3] | mass density, 313.15 K [kg/m3] | mass density, 333.15 K [kg/m3] | viscosity, 303.15 K [mPa·s] | viscosity, 313.15 K [mPa·s] | viscosity, 323.15 K [mPa·s] | viscosity, 333.15 K [mPa·s]
x1 = 0.01952 | 992.346 | 986.497 | 976.433 | 1.23 | 0.98 | 0.8 | 0.63
x1 = 0.04244 | 988.532 | 981.237 | 969.713 | 1.83 | 1.39 | 1.1 | 0.9
x1 = 0.06965 | 985.772 | 976.817 | 963.518 | 2.51 | 1.85 | 1.4 | 1.06
x1 = 0.1025 | 982.813 | 972.197 | 957.323 | 3.65 | 2.57 | 1.86 | 1.37
x1 = 0.1434 | 978.544 | 966.791 | 950.667 | 4.87 | 3.29 | 2.29 | 1.62
